Data set [1] addresses T1, FcPT1b (Ficus carica, UniProt A0A6S4PSN9).
T1 construct: full CDS with transit peptide, pGWB502 (35S promoter), transient expression in Nicotiana benthamiana leaves, microsomes
T1 sequence (A0A6S4PSN9 1-422): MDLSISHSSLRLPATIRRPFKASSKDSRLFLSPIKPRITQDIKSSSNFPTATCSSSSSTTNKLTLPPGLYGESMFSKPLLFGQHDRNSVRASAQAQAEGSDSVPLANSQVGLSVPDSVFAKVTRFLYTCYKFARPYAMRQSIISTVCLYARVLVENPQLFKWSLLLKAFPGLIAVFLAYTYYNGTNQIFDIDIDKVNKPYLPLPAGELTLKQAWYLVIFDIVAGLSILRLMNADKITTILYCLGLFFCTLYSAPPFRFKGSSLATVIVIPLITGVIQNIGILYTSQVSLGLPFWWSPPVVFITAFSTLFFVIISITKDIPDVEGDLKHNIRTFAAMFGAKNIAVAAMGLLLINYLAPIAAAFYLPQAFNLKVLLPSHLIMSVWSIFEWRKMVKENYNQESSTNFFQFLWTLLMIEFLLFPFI
Nature of the data set: microsomal prenyltransferase assay, HPLC and LC-MS2 product identification. It counts as biochemical. Particulars: 50 µM umbelliferone, 200 µM DMAPP, 10 mM MgCl2; product demethylsuberosin (DMS).

The target of data set [2] is FcPT1a (Ficus carica, UniProt A0A6S4Q0J8). Particulars: read-out: apparent Km; co-substrate DMAPP; Mg2+; 28 °C. The procedure: microsomal prenyltransferase assay, HPLC-PDA, nonlinear fit on FcPT1a | The apparent K m values of FcPT1a for umbelliferone and DMAPP were determined
Data set [3] concerns CC(C)=CCOP(=O)(O)OP(=O)(O)O. Nature of the data set: cells, lysate or membranes. Particulars: co-substrate umbelliferone, Mg2+, 28 °C.

For `CC(C)=CCOP(=O)(O)OP(=O)(O)O` [dimethylallyl diphosphate], in data set [1], the “microsomal prenyltransferase assay, HPLC and LC-MS2 product identification” value is recorded as “UDT reaction mixtures composed of microsomes containing recombinant FcPT1a/b proteins yielded an enzymatic reaction product”.

With `O=c1ccc2ccc(O)cc2o1` [umbelliferone], the “microsomal prenyltransferase assay, HPLC and LC-MS2 product identification” value in data set [1] is listed as “recombinant FcPT1a/b proteins yielded an enzymatic reaction product concomitant with the consumption of umbelliferone”. The Km in data set [2] was 35 ± 4 µM. For FcPT1a (Ficus carica), the Km in data set [3] was found to be 17 ± 1 µM.

Usually Km stands for the substrate concentration at which the rate is half of its maximum.

These data come from PMC7028039, “Convergent evolution of the UbiA prenyltransferase family underlies the independent acquisition of furanocoumarins in plants” (The New Phytologist, 2019).
